One test deals with Mu-type opioid receptor (Homo sapiens, UniProt P35372). The test is described as follows: Affinity towards cloned Opioid receptor mu 1.
In the next test the target is D(1B) dopamine receptor (Homo sapiens, UniProt P21918). The test is described as follows: Affinity towards cloned Dopamine receptor D5.
Test [1] concerns the target T1, 5-hydroxytryptamine receptor 2C (Homo sapiens, UniProt P28335).
T1 sequence (P28335 whole entry): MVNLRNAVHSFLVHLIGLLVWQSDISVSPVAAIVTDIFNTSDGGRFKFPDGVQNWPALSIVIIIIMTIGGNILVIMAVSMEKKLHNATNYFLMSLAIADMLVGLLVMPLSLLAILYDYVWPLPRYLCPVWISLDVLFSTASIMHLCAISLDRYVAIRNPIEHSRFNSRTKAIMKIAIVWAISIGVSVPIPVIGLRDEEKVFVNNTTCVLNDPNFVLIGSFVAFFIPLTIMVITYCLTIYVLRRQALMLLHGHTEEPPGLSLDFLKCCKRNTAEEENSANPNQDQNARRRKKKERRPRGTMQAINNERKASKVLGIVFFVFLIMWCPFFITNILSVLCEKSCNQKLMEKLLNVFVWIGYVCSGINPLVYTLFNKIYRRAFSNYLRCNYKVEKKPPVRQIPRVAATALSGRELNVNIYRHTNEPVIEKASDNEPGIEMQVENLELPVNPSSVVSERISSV
The test is described as follows: In vitro binding affinity towards cloned human 5-HT2C receptor using [3H]5-carboximidotryptamine as radioligand.

Test [2] addresses 5-hydroxytryptamine receptor 1D (Homo sapiens, UniProt P28221). The test is described as follows: In vitro binding affinity towards cloned human 5-HT1D receptor using [3H]5-carboximidotryptamine as radioligand.
Another test has as its target T2, D(4) dopamine receptor (Homo sapiens, UniProt P21917).
T2 sequence (P21917 whole entry): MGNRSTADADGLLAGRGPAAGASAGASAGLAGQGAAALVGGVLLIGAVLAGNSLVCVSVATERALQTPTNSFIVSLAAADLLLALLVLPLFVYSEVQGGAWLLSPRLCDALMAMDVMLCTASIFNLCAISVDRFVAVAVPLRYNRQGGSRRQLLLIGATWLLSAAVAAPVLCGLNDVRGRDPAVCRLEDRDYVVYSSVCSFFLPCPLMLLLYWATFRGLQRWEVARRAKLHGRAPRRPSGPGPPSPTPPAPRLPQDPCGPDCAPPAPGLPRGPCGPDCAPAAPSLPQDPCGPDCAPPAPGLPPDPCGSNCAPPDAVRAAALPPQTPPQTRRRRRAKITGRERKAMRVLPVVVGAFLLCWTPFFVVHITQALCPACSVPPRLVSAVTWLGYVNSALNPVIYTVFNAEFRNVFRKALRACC
Kind of test: Affinity towards cloned Dopamine receptor D4.

Test [3] addresses 5-hydroxytryptamine receptor 6 (Homo sapiens, UniProt P50406). Kind of test: In vitro binding affinity towards cloned human 5-HT6 receptor using [3H]5-carboximidotryptamine as radioligand.
Test [4] addresses Delta-type opioid receptor (Homo sapiens, UniProt P41143). Kind of test: Affinity towards cloned Opioid receptor delta 1.
The target in test [5] is T3, 5-hydroxytryptamine receptor 1A (Homo sapiens, UniProt P08908).
T3 sequence (P08908 whole entry): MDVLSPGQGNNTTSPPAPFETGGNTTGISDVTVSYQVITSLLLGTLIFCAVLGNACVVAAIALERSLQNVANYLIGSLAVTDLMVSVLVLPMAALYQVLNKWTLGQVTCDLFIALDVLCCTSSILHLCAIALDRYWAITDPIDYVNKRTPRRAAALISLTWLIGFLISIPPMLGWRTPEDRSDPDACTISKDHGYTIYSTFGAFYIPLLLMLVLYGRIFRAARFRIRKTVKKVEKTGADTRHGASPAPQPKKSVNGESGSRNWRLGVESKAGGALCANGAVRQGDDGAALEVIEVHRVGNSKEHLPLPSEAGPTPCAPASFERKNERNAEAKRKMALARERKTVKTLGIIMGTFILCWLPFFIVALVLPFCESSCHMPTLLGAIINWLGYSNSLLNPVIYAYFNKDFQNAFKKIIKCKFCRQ
Kind of test: Affinity towards cloned human 5-hydroxytryptamine 1A receptor.

The term Ki denotes the equilibrium dissociation constant of an inhibitor or competing ligand from its target.

Sequence of 5-hydroxytryptamine receptor 6 (P50406 whole entry): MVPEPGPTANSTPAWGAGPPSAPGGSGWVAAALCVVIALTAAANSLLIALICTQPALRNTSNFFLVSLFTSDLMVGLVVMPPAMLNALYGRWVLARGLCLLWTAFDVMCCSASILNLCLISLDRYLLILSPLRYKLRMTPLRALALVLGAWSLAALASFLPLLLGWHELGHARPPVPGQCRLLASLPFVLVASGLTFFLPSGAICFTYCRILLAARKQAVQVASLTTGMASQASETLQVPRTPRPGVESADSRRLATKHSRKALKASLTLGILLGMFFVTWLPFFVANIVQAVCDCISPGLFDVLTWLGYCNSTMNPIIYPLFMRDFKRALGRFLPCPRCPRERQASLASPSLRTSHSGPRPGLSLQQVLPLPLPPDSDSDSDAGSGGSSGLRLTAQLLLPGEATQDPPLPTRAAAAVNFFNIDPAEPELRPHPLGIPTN
Sequence of 5-hydroxytryptamine receptor 1D (P28221 whole entry): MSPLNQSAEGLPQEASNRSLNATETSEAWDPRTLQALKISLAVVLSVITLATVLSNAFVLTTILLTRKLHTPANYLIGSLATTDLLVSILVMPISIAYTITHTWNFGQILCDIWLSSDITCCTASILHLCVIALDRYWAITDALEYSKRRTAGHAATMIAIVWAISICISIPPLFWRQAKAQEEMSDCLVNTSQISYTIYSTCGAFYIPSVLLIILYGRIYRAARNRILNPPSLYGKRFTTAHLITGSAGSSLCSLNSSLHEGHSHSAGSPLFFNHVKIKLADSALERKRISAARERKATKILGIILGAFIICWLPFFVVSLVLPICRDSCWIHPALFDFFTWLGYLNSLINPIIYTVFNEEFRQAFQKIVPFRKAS
Sequence of Delta-type opioid receptor (P41143 whole entry): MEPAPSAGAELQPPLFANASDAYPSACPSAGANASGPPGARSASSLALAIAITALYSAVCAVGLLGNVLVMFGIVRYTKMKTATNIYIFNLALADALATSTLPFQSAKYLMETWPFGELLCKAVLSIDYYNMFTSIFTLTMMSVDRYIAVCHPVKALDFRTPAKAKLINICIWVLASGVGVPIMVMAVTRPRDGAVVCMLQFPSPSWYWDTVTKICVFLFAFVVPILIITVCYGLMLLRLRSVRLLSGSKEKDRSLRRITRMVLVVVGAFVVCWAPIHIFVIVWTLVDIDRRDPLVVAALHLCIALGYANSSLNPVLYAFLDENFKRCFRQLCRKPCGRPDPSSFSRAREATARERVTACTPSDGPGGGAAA
Sequence of Mu-type opioid receptor (P35372 whole entry): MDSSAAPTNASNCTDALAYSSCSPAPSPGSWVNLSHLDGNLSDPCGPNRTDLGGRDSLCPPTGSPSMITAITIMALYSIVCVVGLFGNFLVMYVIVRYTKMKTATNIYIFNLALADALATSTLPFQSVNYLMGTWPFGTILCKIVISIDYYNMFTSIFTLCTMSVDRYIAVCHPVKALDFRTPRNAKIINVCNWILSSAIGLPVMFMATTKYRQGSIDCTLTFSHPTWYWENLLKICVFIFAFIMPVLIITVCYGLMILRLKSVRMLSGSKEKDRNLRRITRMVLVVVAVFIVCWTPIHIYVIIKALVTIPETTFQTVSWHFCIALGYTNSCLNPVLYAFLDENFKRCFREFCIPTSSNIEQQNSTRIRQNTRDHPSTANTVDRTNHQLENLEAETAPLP
Sequence of D(1B) dopamine receptor (P21918 whole entry): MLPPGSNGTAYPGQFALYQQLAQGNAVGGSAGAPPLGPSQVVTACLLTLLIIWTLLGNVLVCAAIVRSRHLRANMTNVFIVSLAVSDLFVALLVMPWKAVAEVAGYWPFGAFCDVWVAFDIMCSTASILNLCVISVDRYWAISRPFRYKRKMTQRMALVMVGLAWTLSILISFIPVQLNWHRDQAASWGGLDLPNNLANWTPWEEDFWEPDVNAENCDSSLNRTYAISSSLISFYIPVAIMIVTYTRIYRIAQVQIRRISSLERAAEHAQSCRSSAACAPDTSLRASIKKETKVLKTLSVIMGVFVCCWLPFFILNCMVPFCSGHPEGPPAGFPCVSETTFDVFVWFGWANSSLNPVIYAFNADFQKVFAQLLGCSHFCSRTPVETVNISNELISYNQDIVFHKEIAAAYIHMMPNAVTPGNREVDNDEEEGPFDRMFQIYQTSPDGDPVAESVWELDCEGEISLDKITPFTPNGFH

Turning to `COc1ccc(NC(=O)N2CCN(c3ccc(C(F)(F)F)cc3)CC2)cc1N1CCN(C)CC1`, the Ki is over 10 µM on Mu-type opioid receptor; over 10 µM on D(1B) dopamine receptor; 2.83 µM in test [1]; 0.345 µM in test [2]; over 10 µM at D(4) dopamine receptor; 2.86 µM in test [3]. Also, the Ki in test [4] was over 10 µM.
As for `COc1ccc(NC(=O)N2CCN(c3ccccc3Cl)CC2)cc1N1CCN(C)CC1`, the Ki is over 10 µM at Mu-type opioid receptor; over 10 µM at D(1B) dopamine receptor; 1.24 µM in test [1]; 0.0347 µM in test [2]; over 10 µM on D(4) dopamine receptor; 0.469 µM in test [3]. The compound also showed a Ki in test [4] of over 10 µM.
Regarding `COc1ccccc1N1CCC(C(=O)Nc2ccc(OC)c(N3CCN(C)CC3)c2)CC1`, the Ki on Mu-type opioid receptor was over 10 µM; on D(1B) dopamine receptor it was over 10 µM; in test [1], 9.95 µM; in test [2], 0.0154 µM; on D(4) dopamine receptor, over 10 µM; in test [4] it was over 10 µM.
As to `COc1ccc(NC(=O)N2CCN(c3ccccc3F)CC2)cc1N1CCN(C)CC1`, the Ki on Mu-type opioid receptor was over 10 µM; on D(1B) dopamine receptor it was over 10 µM; in test [1], 1.08 µM; in test [2], 0.103 µM; on D(4) dopamine receptor it was over 10 µM; in test [3], 0.841 µM. The same compound registered a Ki in test [4] of over 10 µM.
With `COc1ccc(NC(=O)N2CCN(c3ccc(-c4ccccc4)cc3)CC2)cc1N1CCN(C)CC1`, the Ki was over 10 µM on Mu-type opioid receptor; over 10 µM at D(1B) dopamine receptor; 0.0065 µM in test [1]; 0.209 µM in test [2]; over 10 µM at D(4) dopamine receptor; 1.43 µM in test [3]. This compound also came in with a Ki in test [4] of over 10 µM.
Regarding `COc1ccc(NC(=O)N2CCN(c3ccc(Cl)cc3)CC2)cc1N1CCN(C)CC1`, the Ki at Mu-type opioid receptor was over 10 µM; at D(1B) dopamine receptor, over 10 µM; in test [1] it was 0.267 µM; in test [2], 0.00651 µM; at D(4) dopamine receptor, over 10 µM; in test [3], 5.09 µM. In test [4], this compound yielded a Ki of over 10 µM.
With `COc1ccc(NC(=O)c2ccc(-c3ccc(-c4noc(C)n4)cc3C)cc2)cc1N1CCN(C)CC1` [GR-127935], the Ki on Mu-type opioid receptor is over 10 µM; in test [5] it was 0.07 µM; on D(1B) dopamine receptor, over 10 µM; in test [1], 0.105 µM; at D(4) dopamine receptor it was over 10 µM; in test [3] it was over 10 µM. Besides, the Ki in test [4] is over 10 µM.
Consider `COc1ccc(NC(=O)N2CCN(c3ccc(SC)cc3)CC2)cc1N1CCN(C)CC1`, for which the Ki was over 10 µM at Mu-type opioid receptor; over 10 µM at D(1B) dopamine receptor; 1.14 µM in test [1]; 0.329 µM in test [2]; over 10 µM at D(4) dopamine receptor; over 10 µM in test [3]. The Ki in test [4] is over 10 µM.
Turning to `COc1ccc(NC(=O)N2CCN(c3ccc(F)cc3)CC2)cc1N1CCN(C)CC1`, the inhibitory constant (Ki) on Mu-type opioid receptor is over 10 µM; at D(1B) dopamine receptor, over 10 µM; in test [1], over 10 µM; in test [2], 0.168 µM; at D(4) dopamine receptor, over 10 µM; in test [3] it was over 10 µM. In test [4], this compound yielded a Ki of over 10 µM.

Source of the values: ChEMBL document CHEMBL1143467, “Synthesis of potent and selective serotonin 5-HT1B receptor ligands” (Bioorg Med Chem Lett, 2005).
